Measured values: the supplement of paper PMC10307832

Legend:
Test in all cases: relative viability (nuclei count vs DMSO), 5 days (fraction); higher = more cells survive
Zosuquidar + Linsitinib = compound: O[C@@H](COc1cccc2ncccc12)CN1CCN([C@@H]2c3ccccc3[C@@H]3[C@H](c4ccccc42)C3(F)F)CC1 [Zosuquidar] + C[C@]1(O)C[C@@H](c2nc(-c3ccc4ccc(-c5ccccc5)nc4c3)c3c(N)nccn32)C1 [Linsitinib] (partner 1 µM)
How it was run: (§1)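 Values are medians from duplicate plates. Each reflects relative viability, defined as the nuclei count of treated wells over that of vehicle wells. Lung cancer cell lines in 1536-well plates were pin-tool dosed one day after seeding with one drug alone or with a fixed anchor-drug dose plus five library-drug doses (not always all listed) in √10 steps, then fixed, stained and imaged at 4× after 5 days.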

[1] = compound: COc1cc2nccc(Oc3ccc(NC(=O)C4(C(=O)Nc5ccc(F)cc5)CC4)cc3)c2cc1OC [Cabozantinib] + O=C(CCCCCCC(=O)Nc1ccccc1)NO [Vorinostat] (partner 1 µM)
How it was run: as §1

[2] = compound: COc1cc2nccc(Oc3ccc(NC(=O)C4(C(=O)Nc5ccc(F)cc5)CC4)cc3)c2cc1OC [Cabozantinib] + CC(=O)c1c(C)c2cnc(Nc3ccc(N4CCNCC4)cn3)nc2n(C2CCCC2)c1=O [Palbociclib] (partner 0.5 µM)
How it was run: as §1

[3] = compound: COc1cc2nccc(Oc3ccc(NC(=O)C4(C(=O)Nc5ccc(F)cc5)CC4)cc3)c2cc1OC [Cabozantinib] + C[C@]1(O)C[C@@H](c2nc(-c3ccc4ccc(-c5ccccc5)nc4c3)c3c(N)nccn32)C1 [Linsitinib] (partner 1 µM)
How it was run: as §1

Row | Cell Line | relative viability (Zosuquidar + Linsitinib; first compound 0.01 µM) | relative viability (Zosuquidar + Linsitinib; first compound 0.03162 µM) | relative viability (Zosuquidar + Linsitinib; first compound 0.1 µM) | relative viability (Zosuquidar + Linsitinib; first compound 0.3162 µM) | relative viability (Zosuquidar + Linsitinib; first compound 1 µM) | relative viability ([1]; first compound 0.02 µM) | relative viability ([1]; first compound 0.06325 µM) | relative viability ([1]; first compound 0.2 µM) | relative viability ([1]; first compound 0.6325 µM) | relative viability ([1]; first compound 2 µM) | relative viability ([2]; first compound 0.02 µM) | relative viability ([2]; first compound 0.06325 µM) | relative viability ([2]; first compound 0.2 µM) | relative viability ([2]; first compound 0.6325 µM) | relative viability ([2]; first compound 2 µM) | relative viability ([3]; first compound 0.02 µM) | relative viability ([3]; first compound 0.06325 µM) | relative viability ([3]; first compound 0.2 µM) | relative viability ([3]; first compound 0.6325 µM) | relative viability ([3]; first compound 2 µM)
1 | EMC-BAC-2 | 0.803 | 0.843 | 0.782 | 0.858 | 0.797 | 0.279 | 0.678 | 0.608 | 0.456 | 0.422 | 0.531 | 0.551 | 0.552 | 0.533 | 0.543 | 0.842 | 0.853 | 0.775 | 0.834 | 0.797
2 | NCI-H650 | 0.886 | 0.629 |  | 0.965 | 0.921 | 0.412 | 0.489 | 0.458 | 0.721 | 0.414 | 0.343 | 0.325 | 0.339 | 0.317 | 0.296 | 0.846 | 1.02 | 1.05 | 0.971 | 0.774
3 | NCI-H1792 | 0.545 | 0.438 | 0.431 | 0.572 | 0.579 |  |  |  |  |  |  | 0.707 | 0.668 | 0.679 | 0.579 | 0.669 | 0.588 | 0.511 | 0.483 | 0.496
4 | NCI-H2009 | 1.22 | 1.25 | 1.15 | 1.16 | 1.2 | 0.701 | 0.855 | 0.744 | 0.809 | 0.748 | 0.209 | 0.25 | 0.269 | 0.277 | 0.141 | 1.23 | 1.17 | 1.18 | 1.19 | 1.23
